The values that follow come from patent publication US20140377223A1, “SUBSTITUTED B[…] AND METHODS OF USE THEREOF FOR THE TREATMENT OF VIRAL DISEASES” (priority 2010, published 2014).

Molecules are shown by their SMILES. Where only a bound is given, the exact number is not on record here.

The subject of one test is HCV replicon genotype 1b. Kind of test: Cell-based HCV replicon assay (TaqMan-based), genotype 1b. To be noted: Hepatitis C virus, 72 h, HCV replicon cells, replicon RNA by real time PCR (TaqMan) on day 3. How it is done:
(§1) Measurement of inhibition by compounds was performed using the HCV replicon system. Several different replicons encoding different HCV genotypes or mutations were used. In addition, potency measurements were made using different formats of the replicon assay, including different ways of measurements and different plating formats. See Jan M. Vrolijk et al., A replicons-based bioassay for the measurement of interferons in patients with chronic hepatitis C, 110 J. VIROLOGICAL METHODS 201 (2003); Steven S. Carroll et al., Inhibition of Hepatitis C Virus RNA Replication by 2′-Modified Nucleoside Analogs, 278(14) J. BIOLOGICAL CHEMISTRY 11979 (2003). However, the underlying principles are common to all of these determinations, and are outlined below.
(§2) TaqMan®-Based Assay Protocol: Compounds 1, 2 and 3 were assayed for cell-based anti-HCV activity by the following protocol. Replicon cells were seeded at 5000 cells/well in 96-well collagen I-coated Nunc plates in the presence of the test compound. Various concentrations of test compound, typically in 10 serial 2-fold dilutions, were added to the assay mixture, with the starting concentration ranging from 250 μM to 1 μM. The final concentration of DMSO was 0.5%, fetal bovine serum was 5%, in the assay media. Cells were harvested on day 3 by the addition of 1× cell lysis buffer (Ambion cat #8721). The replicon RNA level was measured using real time PCR (TaqMan® assay). The amplicon was located in 5B. The PCR primers were: 5B.2F, ATGGACAGGCGCCCTGA (SEQ. ID NO. 1); 5B.2R, […] (SEQ. ID NO. 2); the probe sequence was FAM-labeled CACGCCATGCGCTGCGG (SEQ. ID NO. 3). GAPDH RNA was used as endogenous control and was amplified in the same reaction as NS5B (multiplex PCR) using primers and VIC-labeled probe recommended by the manufacturer (PE Applied Biosystem). […] Alternatively, to quantitate the absolute amount of replicon RNA, a standard curve was established by including serially diluted T7 transcripts of replicon RNA in the Taqman assay. […]

For a further test, the system named is HCV replicon genotype 2a. Kind of test: Cell-based HCV replicon assay (TaqMan-based), genotype 2a. To be noted: Hepatitis C virus, 72 h, HCV replicon cells, replicon RNA by real time PCR (TaqMan) on day 3. How it is done:
as §1, §2

In another test the test system is HCV replicon genotype 1a. The experiment in a line: Cell-based HCV replicon assay (TaqMan-based), genotype 1a. Particulars: Hepatitis C virus, 72 h, HCV replicon cells, replicon RNA by real time PCR (TaqMan) on day 3. How it is done:
as §1, §2

In the next test the test system is HCV replicon genotype 3a. Kind of test: Cell-based HCV replicon assay (TaqMan-based), genotype 3a. Particulars: Hepatitis C virus, 72 h, read-out: Genotype EC50 (nM) 3a. How it is done:
as §1, §2

As for `COC(=O)N[C@H](C(=O)N1CCC[C@H]1c1ncc(-c2ccc3c(c2)-c2ccc(-c4cnc([C@@H]5CCCN5C(=O)[C@@H](NC(=O)OC)C(C)C)[nH]4)cc2-3)[nH]1)C(C)C` [Compound 1], the EC50 in the test with HCV replicon genotype 1b was 0.007 nM; in the test on HCV replicon genotype 2a it was less than 0.019 nM; in the test on HCV replicon genotype 1a it was 0.03 nM; with HCV replicon genotype 3a it was less than 0.19 nM.

For the compound `COC(=O)N[C@H](C(=O)N1C(c2ncc(-c3ccc4c(c3)-c3ccc(-c5cnc([C@@H]6[C@H]7CC[C@H](C7)N6C(=O)[C@@H](NC(=O)OC)C(C)C)[nH]5)cc3-4)[nH]2)[C@H]2CC[C@@H]1C2)C(C)C` (stereo partly drawn) [Compound 2], the half-maximal effective concentration (EC50) is 0.005 nM in the test on HCV replicon genotype 1b, less than 0.019 nM in the test on HCV replicon genotype 2a, 0.52 nM in the test with HCV replicon genotype 1a and less than 0.19 nM with HCV replicon genotype 3a.

Take `COC(=O)N[C@H](C(=O)N1CC(F)(F)C[C@H]1c1ncc(-c2ccc3c(c2)-c2ccc(-c4cnc([C@@H]5CC(F)(F)CN5C(=O)[C@@H](NC(=O)OC)C(C)C)[nH]4)cc2-3)[nH]1)C(C)C` [Compound 3]: the EC50 was 0.003 nM with HCV replicon genotype 1b, less than 0.019 nM in the test on HCV replicon genotype 2a, 0.05 nM in the test on HCV replicon genotype 1a and 0.022 nM in the test with HCV replicon genotype 3a.
